Tested on: hepatocytes
Assay: RNA-seq of hepatocytes treated with Phase III failure compounds
Settings: hepatocytes
Experimental: RNA-seq was performed to determine the effects of the compounds on hepatocytes.
Significance was determined by the criteria of FPKM≥0.5, a log 2(fold-change)≥1, and a […].

CCC(CC)[C@H](NC(C)=O)[C@@H]1[C@H](O)[C@@H](C(=O)O)C[C@H]1NC(=N)N.O.O.O [peramivir (trihydrate), peramivir]
RNA-seq results, GPD1 expression (gene GPD1): 0.37
RNA-seq results: GPD1 expression (gene GPD1): 0
RNA-seq results, GPHN expression (gene GPHN): −0.14
RNA-seq results: GPHN expression (gene GPHN): 0.06
RNA-seq results, GTPBP3 expression (gene GTPBP3): 0.32
RNA-seq results: GTPBP3 expression (gene GTPBP3): 0.07
RNA-seq results, GUSB expression (gene GUSB): −0.26
RNA-seq results: GUSB expression (gene GUSB): 0.23
RNA-seq results, GYG1 expression (gene GYG1): −0.32
RNA-seq results: GYG1 expression (gene GYG1): 0.02
RNA-seq results, GYS1 expression (gene GYS1): 0.05
RNA-seq results: GYS1 expression (gene GYS1): 0.12
RNA-seq results, GYS2 expression (gene GYS2): −0.03
RNA-seq results: GYS2 expression (gene GYS2): −0.13
RNA-seq results, H6PD expression (gene H6PD): 0.18
RNA-seq results: H6PD expression (gene H6PD): −0.01
RNA-seq results, H19 expression (gene H19): −0.21
RNA-seq results: H19 expression (gene H19): 0.34
RNA-seq results, HAL expression (gene HAL): −0.09
RNA-seq results: HAL expression (gene HAL): −0.17
RNA-seq results, HAX1 expression (gene HAX1): −0.12
RNA-seq results: HAX1 expression (gene HAX1): 0.15
RNA-seq results, HBA1 expression (gene HBA1): 1.07
RNA-seq results: HBA1 expression (gene HBA1): 0.04
RNA-seq results, HBB expression (gene HBB): 0.07
RNA-seq results: HBB expression (gene HBB): −0.54
RNA-seq results, HGD expression (gene HGD): −0.10
RNA-seq results: HGD expression (gene HGD): −0.18
RNA-seq results, HLA-B expression (gene HLA-B): 0.05
RNA-seq results: HLA-B expression (gene HLA-B): 0.18
RNA-seq results, HMBS expression (gene HMBS): −0.09
RNA-seq results: HMBS expression (gene HMBS): 0
RNA-seq results, HMGCR expression (gene HMGCR): −0.11
RNA-seq results: HMGCR expression (gene HMGCR): −0.29
RNA-seq results, HMGCS2 expression (gene HMGCS2): −0.21
RNA-seq results: HMGCS2 expression (gene HMGCS2): −0.28
RNA-seq results, HMOX1 expression (gene HMOX1): 0.22
RNA-seq results: HMOX1 expression (gene HMOX1): 1.28
RNA-seq results, HNF1A expression (gene HNF1A): 0.33
RNA-seq results: HNF1A expression (gene HNF1A): 0.11
RNA-seq results, HNF1B expression (gene HNF1B): −0.02
RNA-seq results: HNF1B expression (gene HNF1B): −0.15
RNA-seq results, HNF4A expression (gene HNF4A): 0.30
RNA-seq results: HNF4A expression (gene HNF4A): −0.01
RNA-seq results, HOGA1 expression (gene HOGA1): 0.80
RNA-seq results: HOGA1 expression (gene HOGA1): 0.01
RNA-seq results, HPD expression (gene HPD): 0.10
RNA-seq results: HPD expression (gene HPD): 0.06
RNA-seq results, HPGD expression (gene HPGD): −0.69
RNA-seq results: HPGD expression (gene HPGD): −0.7
RNA-seq results, HPS4 expression (gene HPS4): −0.04
RNA-seq results: HPS4 expression (gene HPS4): 0.26
RNA-seq results, HPS5 expression (gene HPS5): −0.12
RNA-seq results: HPS5 expression (gene HPS5): −0.18
RNA-seq results, HPS6 expression (gene HPS6): 0.31
RNA-seq results: HPS6 expression (gene HPS6): 0.23
RNA-seq results, HPX expression (gene HPX): −0.17
RNA-seq results: HPX expression (gene HPX): 0.2
RNA-seq results, HRAS expression (gene HRAS): −0.15
RNA-seq results: HRAS expression (gene HRAS): 0.31
RNA-seq results, HRSP12 expression (gene HRSP12): −0.47
RNA-seq results: HRSP12 expression (gene HRSP12): −0.3
RNA-seq results, HSD3B7 expression (gene HSD3B7): −0.05
RNA-seq results: HSD3B7 expression (gene HSD3B7): 0.26
RNA-seq results, HSD17B10 expression (gene HSD17B10): −0.09
RNA-seq results: HSD17B10 expression (gene HSD17B10): 0.15
RNA-seq results: HYLS1 expression (gene HYLS1): −0.60
RNA-seq results: ID1 expression (gene ID1): 0.13
RNA-seq results: IDH1 expression (gene IDH1): −0.29
RNA-seq results: IDH2 expression (gene IDH2): −0.11
RNA-seq results: IDUA expression (gene IDUA): 0.23
RNA-seq results: IFIH1 expression (gene IFIH1): −0.40
RNA-seq results: IFNAR2 expression (gene IFNAR2): −0.51
RNA-seq results: IFT27 expression (gene IFT27): −0.11
RNA-seq results: IFT80 expression (gene IFT80): 0.00
RNA-seq results: IFT122 expression (gene IFT122): −0.15
RNA-seq results: IFT140 expression (gene IFT140): 0.44
RNA-seq results: IFT172 expression (gene IFT172): 0.36
RNA-seq results: IGFALS expression (gene IGFALS): 0.33
RNA-seq results: IKBKG expression (gene IKBKG): 0.48
RNA-seq results: IL1RN expression (gene IL1RN): −0.20
RNA-seq results: IL2RG expression (gene IL2RG): −0.08
RNA-seq results: INSR expression (gene INSR): 0.01
RNA-seq results: INVS expression (gene INVS): −0.15
RNA-seq results: ISYNA1 expression (gene ISYNA1): 0.20
RNA-seq results: ITGB3 expression (gene ITGB3): 0.02
RNA-seq results: IYD expression (gene IYD): −0.15
RNA-seq results: JAG1 expression (gene JAG1): 0.14
RNA-seq results: JAK2 expression (gene JAK2): −0.26
RNA-seq results: KCTD7 expression (gene KCTD7): 0.26
RNA-seq results: KCTD11 expression (gene KCTD11): 0.53
RNA-seq results: KHK expression (gene KHK): 0.13
RNA-seq results: KIAA0586 expression (gene KIAA0586): −0.32
RNA-seq results: KMT2D expression (gene KMT2D): 0.57
RNA-seq results: KPTN expression (gene KPTN): 0.03
RNA-seq results: KRIT1 expression (gene KRIT1): −0.32
RNA-seq results: KRT18 expression (gene KRT18): 0.14
RNA-seq results: KYNU expression (gene KYNU): −0.28
RNA-seq results: LAMB2 expression (gene LAMB2): 0.14
RNA-seq results: LCAT expression (gene LCAT): 0.18
RNA-seq results: LDHB expression (gene LDHB): −0.23
RNA-seq results: LDLR expression (gene LDLR): 0.23
RNA-seq results: LDLRAP1 expression (gene LDLRAP1): 0.03
RNA-seq results: LIPC expression (gene LIPC): −0.23
RNA-seq results: LIPT1 expression (gene LIPT1): −0.63
RNA-seq results: LMNB2 expression (gene LMNB2): 0.36
RNA-seq results: LPA expression (gene LPA): 0.04
RNA-seq results: LPIN1 expression (gene LPIN1): −0.08
RNA-seq results: LPIN2 expression (gene LPIN2): 0.08
RNA-seq results: LRBA expression (gene LRBA): −0.14
RNA-seq results: LRP5 expression (gene LRP5): 0.14
RNA-seq results: LYRM4 expression (gene LYRM4): −0.40
RNA-seq results: LYST expression (gene LYST): −0.05
RNA-seq results: MAN1A1 expression (gene MAN1A1): −0.36
RNA-seq results: MAN2B1 expression (gene MAN2B1): 0.14
RNA-seq results: MAOB expression (gene MAOB): −0.07
RNA-seq results: MAT1A expression (gene MAT1A): 0.14
RNA-seq results: MBL2 expression (gene MBL2): −0.25

— patent US20210254056A1, “IDENTIFICATION AND TARGETED MODULATION OF GENE SIGNALING NETWORKS” (CAMP4 THERAPEUTICS CORPORATION, priority 2017, published 2021)
